No end group written: not given here.

This is an account of results in patent US9340577B2, “HLA binding motifs and peptides and their uses” (priority 1992, dated 2016).

Test in all cases: biochemical
One assay has as its target DR1 (DRB1*0101) (Homo sapiens, UniProt P01903+P01911, A100R/D57E/F55L/F60I/F76Y/I96L/L162R/M171V/P40L/Q125E/R42F/V115G/Y59C). In kind it is binding.
Another assay deals with DR7 (DRB1*0701) (Homo sapiens, UniProt P01903+P01911, A100R/A102G/A103Q/D57E/D86V/E43K/F76Y/K127E/L162R/M171V/P40G/Q125H/Q99D/R33Q/R42Y/R54Q/S133A/S66F/T210M/V115G/Y107V/Y59L/Y89S). It is filed as binding.
The target in the next assay is DRB1*0405 (Homo sapiens, UniProt P01903+P01911, A100R/A169T/D86S/F76Y/I96L/K127E/L162R/M171V/N62H/P40V/Q125Y/R42H/S133A/S149N/S66Y/V115G/V209L/W38E). In kind it is binding.
A further assay addresses DRB1*0802 (Homo sapiens, UniProt P01903+P01911, A100R/A103L/A169T/F76Y/H45Y/I96F/K41T/L162R/M171V/P40S/Q125H/Q178H/Q39Y/Q99D/R218S/R42G/S66Y/V115G/W38E). In kind it is binding.
In another assay the target is DRB1*0901 (Homo sapiens, UniProt P01903+P01911, A100R/A103E/D57H/D86V/F55Y/F60I/F76Y/I96F/K127E/L162R/M171V/P40D/Q125H/Q99R/R33Q/R42F/S133A/S66N/T210M/V115G/W38K/Y107V/Y59G/Y89S). In kind it is binding.
The target in a further assay is DRB1*1201 (Homo sapiens, UniProt P01903+P01911, A100R/A169T/D57E/D86V/F55L/H45Y/K41T/L162R/M171V/P40S/Q125H/Q178H/Q39Y/Q99D/R42G/S66L/T262R/V114A/V67L/W38E/Y59H/Y61H/Y89S). In kind it is binding.
The target of the next assay is DRB1*1302 (Homo sapiens, UniProt P01903+P01911, A100E/A169T/K41T/L162R/M171V/P40S/Q125H/Q178H/Q39Y/Q99D/R42S/S66N/T262R/V115G/W38E/Y61H). It is filed as binding.
The target in the next assay is DRB3*0101 (Homo sapiens, UniProt P01903+P79483). It is filed as binding.
The target of the next assay is DRB4*0101 (Homo sapiens, UniProt P01903+P13762, G164S). In kind it is binding.
The target of the next assay is DRB1*1101 (Homo sapiens, UniProt P01903+P01911, A100R/A169T/A87E/I96F/K41T/L162R/M171V/P40S/Q125H/Q178H/Q39Y/Q99D/R42S/S66Y/T262R/V115G/W38E).
In the next assay the target is DRB5*0101 (Homo sapiens, UniProt P01903+Q30154).
A further assay deals with DR4w4 (DRB1*0401) (Homo sapiens, UniProt P01903+P01911, A100K/A169T/F76Y/I96L/K127E/L162R/M171V/N62H/P40V/Q125Y/R42H/S133A/S149N/S66Y/V115G/V209L/W38E). It is filed as binding.
Another assay deals with DRB1*1501 (Homo sapiens, UniProt P01903+P01911). It is filed as binding.

Chain of DRB1*1101 (P01903 26-254 limits assumed, other chains not shown): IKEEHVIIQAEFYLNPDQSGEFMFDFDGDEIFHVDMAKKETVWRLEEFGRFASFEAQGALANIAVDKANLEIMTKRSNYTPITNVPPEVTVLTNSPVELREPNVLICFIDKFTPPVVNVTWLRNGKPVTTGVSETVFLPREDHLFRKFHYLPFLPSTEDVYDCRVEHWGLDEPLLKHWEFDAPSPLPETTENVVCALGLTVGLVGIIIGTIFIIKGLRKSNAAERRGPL
Chain of DRB1*1302 (P01903 26-254 limits assumed, other chains not shown): as above

For SADDLRAFQQLFLNT [Peptide 1543.07], the IC50 against DR1 (DRB1*0101) was 295 nM; at DR7 (DRB1*0701), 0.124 µM; against DRB1*0405 it was 411 nM; against DRB1*0802, 7 µM; against DRB1*0901 it was 0.559 µM; against DRB1*1201 it was 0.305 µM. The IC50 on DRB1*1302 is 3.13 µM; on DRB3*0101, above 20 µM; against DRB4*0101 it was 0.27 µM; on DRB1*1101 (Binding affinity DRB1 *1101), 3.59 µM; at DRB5*0101 (Binding affinity DRB5 *0101), above 20 µM.

For `CC[C@H](C)[C@H](N)C(=O)N[C@@H](CO)C(=O)N[C@H](C(=O)N[C@H](C(=O)N[C@@H](CC(N)=O)C(=O)N[C@@H](CCC(=O)O)C(=O)N[C@@H](CC(=O)O)C(=O)NCC(=O)N[C@@H](CC(N)=O)C(=O)N[C@@H](CCC(=O)O)C(=O)N[C@H](C(=O)N[C@@H](Cc1ccccc1)C(=O)N[C@@H](CC(N)=O)C(=O)N[C@H](C(=O)N[C@@H](CO)C(=O)O)[C@@H](C)O)[C@@H](C)CC)[C@@H](C)CC)[C@@H](C)CC` [Peptide 68.0166], the IC50 against DR4w4 (DRB1*0401) is above 20 µM; at DR7 (DRB1*0701), above 20 µM; against DRB1*0802, above 20 µM; at DRB1*0901, above 20 µM; against DRB1*1201 it was 10.7 µM; against DRB1*1501, 3.01 µM. Moreover, the IC50 was 0.035 µM against DRB3*0101; 6.39 µM against DRB4*0101; above 20 µM on DRB1*1101 (Binding affinity DRB1 *1101); above 18.9 µM against DRB1*1101 (DRB1*1101); above 20 µM at DRB5*0101 (Binding affinity DRB5 *0101); above 37.8 µM against DRB5*0101 (DRB5*0101).

In the case of QWVLTAAHCLKKNSQ [Peptide 68.0004], the IC50 against DR4w4 (DRB1*0401), on DRB1*0802, against DRB1*1201, at DRB1*1302, against DRB1*1501 and on DRB3*0101 was above 20 µM in each case.

Take GQRVPVSHSFPHPLY [Peptide 68.0005]: the IC50 against DR4w4 (DRB1*0401) was above 20 µM; against DRB1*0802, above 20 µM; at DRB1*1201, 5.51 µM; against DRB3*0101, above 20 µM; on DRB1*1101 (Binding affinity DRB1 *1101), above 20 µM; at DRB5*0101 (Binding affinity DRB5 *0101) it was above 20 µM.

For `CC(C)C[C@H](NC(=O)CNC(=O)[C@H](CC(N)=O)NC(=O)[C@H](Cc1ccc(O)cc1)NC(=O)[C@@H](NC(=O)[C@H](CC(=O)O)NC(=O)[C@H](CC(C)C)NC(=O)[C@H](C)N)C(C)C)C(=O)N[C@@H](CC(C)C)C(=O)N1CCC[C@H]1C(=O)N1CCC[C@H]1C(=O)N[C@@H](Cc1ccc(O)cc1)C(=O)N[C@@H](C)C(=O)N[C@@H](CO)C(=O)N[C@@H](CS)C(=O)O` [Peptide 68.0052], the 50% inhibitory concentration (IC50) is above 20 µM on DR7 (DRB1*0701); above 20 µM against DRB1*0901; 7.57 µM against DRB1*1201; above 20 µM on DRB1*1302; above 20 µM at DRB3*0101; above 20 µM against DRB4*0101. For the same compound, the IC50 on DRB5*0101 (Binding affinity DRB5 *0101) was above 20 µM.

For the compound `CSCC[C@H](NC(=O)[C@@H](NC(=O)[C@H](CCCCN)NC(=O)[C@@H](NC(=O)[C@H](C)NC(=O)[C@H](CC(=O)O)NC(=O)[C@@H](N)[C@@H](C)O)C(C)C)C(C)C)C(=O)N[C@@H](CC(=O)O)C(=O)N[C@@H](CC(C)C)C(=O)N1CCC[C@H]1C(=O)N[C@H](C(=O)N[C@@H](CCC(N)=O)C(=O)N[C@@H](CCC(=O)O)C(=O)N1CCC[C@H]1C(=O)N[C@@H](C)C(=O)O)[C@@H](C)O` [Peptide 68.0074], the half-inhibitory concentration (IC50) on DR1 (DRB1*0101) was above 20000 nM; on DR4w4 (DRB1*0401), above 20 µM; on DR7 (DRB1*0701), above 20 µM; against DRB1*0802 it was above 20 µM; against DRB1*0901, above 20 µM; against DRB1*1201, above 20 µM. Moreover, the IC50 on DRB1*1302, against DRB1*1501, against DRB3*0101, at DRB1*1101 (Binding affinity DRB1 *1101) and on DRB5*0101 (Binding affinity DRB5 *0101) was above 20 µM each time.

For LSGLHGQDLFGIWSK [Peptide 68.0040], the IC50 at DR4w4 (DRB1*0401) is above 20 µM; against DR7 (DRB1*0701), above 20 µM; against DRB1*0802, above 20 µM; at DRB1*0901, above 20 µM; on DRB1*1201 it was 7.89 µM; on DRB1*1302, above 20 µM. The IC50 on DRB1*1501, against DRB3*0101, at DRB1*1101 (Binding affinity DRB1 *1101) and at DRB5*0101 (Binding affinity DRB5 *0101) was above 20 µM each time.

Turning to KSRLQGGVLVNEILN [Peptide 68.0046], the IC50 on DR4w4 (DRB1*0401) is above 20 µM; against DRB1*0802, above 20 µM; at DRB1*1201 it was 9.6 µM; against DRB1*1501, above 20 µM; at DRB3*0101, above 20 µM; at DRB1*1101 (Binding affinity DRB1 *1101), above 20 µM. On DRB5*0101 (Binding affinity DRB5 *0101), this compound returned an IC50 above 20 µM.

Consider `CC(C)C[C@H](NC(=O)CNC(=O)[C@H](CC(N)=O)NC(=O)[C@H](Cc1ccc(O)cc1)NC(=O)[C@@H](NC(=O)[C@H](CC(=O)O)NC(=O)[C@@H](N)CC(C)C)C(C)C)C(=O)N[C@@H](CC(C)C)C(=O)N1CCC[C@H]1C(=O)N1CCC[C@H]1C(=O)N[C@@H](Cc1ccc(O)cc1)C(=O)N[C@@H](C)C(=O)N[C@@H](CO)C(=O)N[C@@H](CS)C(=O)N[C@@H](Cc1c[nH]cn1)C(=O)O` [Peptide 68.0053], for which the IC50 against DR7 (DRB1*0701) is above 20 µM; against DRB1*0901, above 20 µM; on DRB1*1201 it was 9.75 µM; against DRB1*1302, above 20 µM; against DRB3*0101 it was above 20 µM; against DRB4*0101, above 20 µM. The compound also yielded an IC50 on DRB5*0101 (Binding affinity DRB5 *0101) above 20 µM.

`CC[C@H](C)[C@H](NC(=O)[C@@H]1CCCN1C(=O)[C@H](CCC(N)=O)NC(=O)[C@@H](N)Cc1c[nH]c2ccccc12)C(=O)N1CCC[C@H]1C(=O)N[C@H](C(=O)N[C@@H](Cc1c[nH]cn1)C(=O)N[C@H](C(=O)N[C@H](C(=O)N1CCC[C@H]1C(=O)N[C@@H](CC(C)C)C(=O)N[C@@H](CO)C(=O)N[C@@H](CCC(=O)O)C(=O)N[C@@H](CC(=O)O)C(=O)N[C@@H](CCC(N)=O)C(=O)O)C(C)C)[C@@H](C)O)C(C)C` [Peptide 68.0039]: the IC50 against DR4w4 (DRB1*0401), against DRB1*0802, against DRB1*1201, against DRB1*1501, against DRB3*0101 and on DRB1*1101 (Binding affinity DRB1 *1101) was above 20 µM in each case. The IC50 at DRB5*0101 (Binding affinity DRB5 *0101) was above 20 µM.

Consider `CSCC[C@H](NC(=O)[C@H](CC(=O)O)NC(=O)[C@H](Cc1ccc(O)cc1)NC(=O)[C@H](CC(C)C)NC(=O)[C@@H]1CCCN1C(=O)[C@H](Cc1c[nH]cn1)NC(=O)[C@@H]1CCCN1)C(=O)N[C@@H](CO)C(=O)N[C@@H](CC(C)C)C(=O)N[C@@H](CC(C)C)C(=O)N[C@@H](CCCCN)C(=O)N[C@@H](CC(N)=O)C(=O)N[C@@H](CCCNC(=N)N)C(=O)N[C@@H](Cc1ccccc1)C(=O)N[C@@H](CC(C)C)C(=O)O` [Peptide 68.0071], for which the IC50 at DR4w4 (DRB1*0401) was above 20 µM; at DRB1*0802 it was above 20 µM; against DRB1*1201, 0.487 µM; against DRB3*0101, above 20 µM; on DRB1*1101 (Binding affinity DRB1 *1101) it was above 20 µM.

Take `CC(C)C[C@H](NC(=O)CNC(=O)[C@H](CC(N)=O)NC(=O)[C@@H](N)Cc1ccc(O)cc1)C(=O)N[C@@H](CC(C)C)C(=O)N1CCC[C@H]1C(=O)N1CCC[C@H]1C(=O)N[C@@H](Cc1ccc(O)cc1)C(=O)N[C@@H](C)C(=O)N[C@@H](CO)C(=O)N[C@@H](CS)C(=O)N[C@@H](Cc1c[nH]cn1)C(=O)N[C@@H](CC(C)C)C(=O)N[C@H](C(=O)N[C@@H](CCC(=O)O)C(=O)O)[C@@H](C)O` [Peptide 68.0054]: the IC50 at DR7 (DRB1*0701), at DRB1*1201, at DRB3*0101 and against DRB4*0101 was above 20 µM throughout.
